# Source: patent US9981987B2, “Tricyclic heterocyclic compounds as phosphoinositide 3-kinase inhibitors” (Karus Therapeutics Limited, priority 2014, dated 2018)
# Experiments:
# PI3K isoforms = test: HTRF biochemical assay, fold selectivity between PI3K isoforms; settings: isoform selectivity
# Excerpt: (§1) Fold form selectivity inhibition data against PI3K isoforms, as determined using a HTRF biochemical assay, is listed below.
# [1] = Rodent pharmacokinetics, male Balb/c mouse, plasma PK; assay type: in vivo; settings: for clearance: male, Balb/c, mouse, iv; for clearance / AUC(0-inf) / AUC(0-t) / Cmax / half-life / Vd / Tmax / bioavailability: plasma; for Vd: read-out: Vss
# Procedure: Animals in Group 1 were administered intravenously with Example B solution formulation in 20% Propylene Glycol, 50% of PEG 400 and 30% of (20% HPβCD in water) via tail vein at a dose of 3 mg/kg.
# Animals in Group 2 were administered with oral solution formulation of Example B in 20% Propylene Glycol, 50% of PEG 400 and 30% of (20% HPβCD in water) at a dose of 10 mg/kg;
# Dosing: 10 mg/kg P.O. and 3 mg/kg I.V.
# Animals in Group 1 were administered intravenously with Example G solution formulation in 5% NMP, 5% solutol HS-15 in 90% HPβCD solution (20% HPβCD in RO water) at 3 mg/kg dose.
# Animals in Group 2 were administered orally with 10 mg/kg solution formulation of Example G in 5% NMP, 5% solutol HS-15 in 90% HPβCD solution (20% HPβCD in RO water)
# [2] = Rodent pharmacokinetics, male CD1 mouse, plasma PK; assay type: in vivo; settings: for clearance / AUC / AUC(0-inf) / AUC(0-t) / Cmax / Vd / half-life: male, CD1, mouse
# Procedure: Formulation: 10% DMSO, 90% Saline Dosing: 10 mg/kg P.O. and 5 mg/kg I.V. Plasma PK Summary:
# Formulation: 10% DMSO, 90% Saline
# Dosing: 10 mg/kg P.O. and 5 mg/kg I.V.
# PI3K p110α = PI3K p110α (Homo sapiens, UniProt P42336); test: HTRF biochemical assay, PI3K p110α
# PI3K p110α, sequence (P42336 whole entry): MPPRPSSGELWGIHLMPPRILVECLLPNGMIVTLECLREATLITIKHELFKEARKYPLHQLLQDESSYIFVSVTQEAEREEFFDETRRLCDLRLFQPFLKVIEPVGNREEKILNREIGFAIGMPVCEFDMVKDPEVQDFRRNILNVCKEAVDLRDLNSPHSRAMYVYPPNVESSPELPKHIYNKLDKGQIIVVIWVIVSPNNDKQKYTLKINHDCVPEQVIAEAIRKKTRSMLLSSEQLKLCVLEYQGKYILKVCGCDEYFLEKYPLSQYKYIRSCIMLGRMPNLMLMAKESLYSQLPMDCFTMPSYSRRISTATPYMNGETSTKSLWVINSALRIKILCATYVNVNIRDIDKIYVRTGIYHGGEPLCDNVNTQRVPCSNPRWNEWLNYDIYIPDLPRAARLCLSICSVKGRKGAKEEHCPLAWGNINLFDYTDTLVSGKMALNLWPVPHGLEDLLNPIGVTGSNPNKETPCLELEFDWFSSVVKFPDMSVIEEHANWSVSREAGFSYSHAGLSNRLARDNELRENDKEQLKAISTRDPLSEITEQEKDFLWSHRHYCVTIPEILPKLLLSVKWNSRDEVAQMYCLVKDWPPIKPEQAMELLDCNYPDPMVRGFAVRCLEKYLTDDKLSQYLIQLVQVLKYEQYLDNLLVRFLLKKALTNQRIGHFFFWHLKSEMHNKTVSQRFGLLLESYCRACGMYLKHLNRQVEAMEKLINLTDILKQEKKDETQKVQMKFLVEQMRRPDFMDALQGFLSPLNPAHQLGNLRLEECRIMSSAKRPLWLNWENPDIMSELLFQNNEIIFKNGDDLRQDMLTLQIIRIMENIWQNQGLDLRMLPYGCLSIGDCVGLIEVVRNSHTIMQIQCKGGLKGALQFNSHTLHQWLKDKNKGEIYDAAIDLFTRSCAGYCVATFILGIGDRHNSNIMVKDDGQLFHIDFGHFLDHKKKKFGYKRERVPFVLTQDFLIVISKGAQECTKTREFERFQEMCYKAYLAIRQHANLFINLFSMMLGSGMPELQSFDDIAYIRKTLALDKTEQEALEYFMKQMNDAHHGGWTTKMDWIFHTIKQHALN
# PI3K p110α, sequence (P27986 whole entry partner): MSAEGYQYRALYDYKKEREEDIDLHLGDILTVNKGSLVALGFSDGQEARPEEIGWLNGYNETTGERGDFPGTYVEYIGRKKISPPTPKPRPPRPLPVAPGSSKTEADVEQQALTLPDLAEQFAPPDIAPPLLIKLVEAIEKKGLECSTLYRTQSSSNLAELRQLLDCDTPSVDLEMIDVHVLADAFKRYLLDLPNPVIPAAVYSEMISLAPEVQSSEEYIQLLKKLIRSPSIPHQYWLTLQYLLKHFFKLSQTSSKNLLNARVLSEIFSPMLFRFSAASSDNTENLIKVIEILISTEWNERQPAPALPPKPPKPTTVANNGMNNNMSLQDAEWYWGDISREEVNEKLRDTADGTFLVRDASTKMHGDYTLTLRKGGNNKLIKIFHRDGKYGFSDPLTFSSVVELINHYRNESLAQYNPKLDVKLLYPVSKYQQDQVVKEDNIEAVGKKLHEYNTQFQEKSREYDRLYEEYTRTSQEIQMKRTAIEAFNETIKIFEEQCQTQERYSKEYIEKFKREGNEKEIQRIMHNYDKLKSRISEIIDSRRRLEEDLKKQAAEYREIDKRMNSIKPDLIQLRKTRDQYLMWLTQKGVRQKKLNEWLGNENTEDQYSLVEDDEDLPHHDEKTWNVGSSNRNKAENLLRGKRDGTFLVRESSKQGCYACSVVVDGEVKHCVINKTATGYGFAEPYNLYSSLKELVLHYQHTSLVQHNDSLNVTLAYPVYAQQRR
# Excerpt: as §1
# PI3K p110β = PI3K p110β (Homo sapiens, UniProt P42338); test: HTRF biochemical assay, PI3K p110β
# PI3K p110β, sequence (P42338 whole entry): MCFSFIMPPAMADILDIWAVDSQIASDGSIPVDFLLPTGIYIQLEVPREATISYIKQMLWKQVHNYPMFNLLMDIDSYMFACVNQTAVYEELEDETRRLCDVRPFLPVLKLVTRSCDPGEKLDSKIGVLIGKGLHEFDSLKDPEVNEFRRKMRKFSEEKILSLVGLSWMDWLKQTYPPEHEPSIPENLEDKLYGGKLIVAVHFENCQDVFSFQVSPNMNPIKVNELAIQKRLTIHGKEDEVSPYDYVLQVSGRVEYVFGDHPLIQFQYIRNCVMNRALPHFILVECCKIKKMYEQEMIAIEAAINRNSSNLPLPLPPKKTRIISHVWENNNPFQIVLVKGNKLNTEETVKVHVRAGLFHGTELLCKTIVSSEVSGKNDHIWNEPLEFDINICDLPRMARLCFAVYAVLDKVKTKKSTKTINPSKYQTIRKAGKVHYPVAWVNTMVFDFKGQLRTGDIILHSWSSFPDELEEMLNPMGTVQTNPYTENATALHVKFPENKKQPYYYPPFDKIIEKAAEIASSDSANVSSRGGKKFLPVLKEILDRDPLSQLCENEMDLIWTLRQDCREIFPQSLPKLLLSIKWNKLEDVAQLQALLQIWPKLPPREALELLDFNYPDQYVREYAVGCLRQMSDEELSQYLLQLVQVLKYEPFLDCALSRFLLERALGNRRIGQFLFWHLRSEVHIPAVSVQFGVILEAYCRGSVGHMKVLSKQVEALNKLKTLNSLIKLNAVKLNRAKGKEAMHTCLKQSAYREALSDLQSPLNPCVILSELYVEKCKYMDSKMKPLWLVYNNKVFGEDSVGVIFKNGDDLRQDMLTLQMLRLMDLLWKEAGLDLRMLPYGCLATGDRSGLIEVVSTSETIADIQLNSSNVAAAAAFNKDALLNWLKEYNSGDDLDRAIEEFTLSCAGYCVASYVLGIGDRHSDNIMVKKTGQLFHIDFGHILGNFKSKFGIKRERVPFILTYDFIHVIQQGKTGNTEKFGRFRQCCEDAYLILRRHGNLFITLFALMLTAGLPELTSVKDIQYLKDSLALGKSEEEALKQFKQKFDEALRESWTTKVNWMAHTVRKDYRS
# PI3K p110β, sequence (P27986 whole entry partner): as the sequence (P27986 whole entry partner) above
# Excerpt: as §1
# PI3K p110δ = PI3K p110δ (Homo sapiens, UniProt O00329); test: HTRF biochemical assay, PI3K p110δ
# PI3K p110δ, sequence (O00329 whole entry): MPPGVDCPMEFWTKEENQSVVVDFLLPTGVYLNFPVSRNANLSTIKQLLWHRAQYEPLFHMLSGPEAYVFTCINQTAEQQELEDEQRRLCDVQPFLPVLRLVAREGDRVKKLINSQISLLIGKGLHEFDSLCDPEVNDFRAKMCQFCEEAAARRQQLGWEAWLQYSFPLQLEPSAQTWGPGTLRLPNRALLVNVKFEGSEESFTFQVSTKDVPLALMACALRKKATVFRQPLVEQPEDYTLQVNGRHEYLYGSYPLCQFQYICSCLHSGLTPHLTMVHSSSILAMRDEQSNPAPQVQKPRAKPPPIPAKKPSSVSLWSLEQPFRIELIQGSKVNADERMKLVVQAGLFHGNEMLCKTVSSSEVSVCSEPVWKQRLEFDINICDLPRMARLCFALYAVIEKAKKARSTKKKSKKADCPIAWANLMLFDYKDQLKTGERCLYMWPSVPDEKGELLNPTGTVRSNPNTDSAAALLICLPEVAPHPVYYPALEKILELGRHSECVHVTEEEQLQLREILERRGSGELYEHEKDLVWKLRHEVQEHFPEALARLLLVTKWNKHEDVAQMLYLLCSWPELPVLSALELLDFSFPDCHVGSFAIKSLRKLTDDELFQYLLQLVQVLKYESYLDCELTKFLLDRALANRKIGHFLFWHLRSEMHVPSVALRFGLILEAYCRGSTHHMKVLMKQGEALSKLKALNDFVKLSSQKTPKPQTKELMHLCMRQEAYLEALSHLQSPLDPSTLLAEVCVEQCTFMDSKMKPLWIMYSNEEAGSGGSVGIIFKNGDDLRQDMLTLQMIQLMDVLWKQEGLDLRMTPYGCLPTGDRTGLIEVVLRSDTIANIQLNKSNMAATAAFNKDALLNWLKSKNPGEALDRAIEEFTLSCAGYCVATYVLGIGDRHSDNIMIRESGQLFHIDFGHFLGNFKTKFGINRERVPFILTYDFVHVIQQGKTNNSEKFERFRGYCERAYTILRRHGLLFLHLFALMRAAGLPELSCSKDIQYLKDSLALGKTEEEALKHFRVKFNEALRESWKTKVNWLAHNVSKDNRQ
# PI3K p110δ, sequence (P27986 whole entry partner): as the sequence (P27986 whole entry partner) above
# Excerpt: as §1
# PI3K p110γ = PI3K p110γ (Homo sapiens, UniProt P48736); test: HTRF biochemical assay, PI3K p110γ
# PI3K p110γ, sequence (P48736 whole entry): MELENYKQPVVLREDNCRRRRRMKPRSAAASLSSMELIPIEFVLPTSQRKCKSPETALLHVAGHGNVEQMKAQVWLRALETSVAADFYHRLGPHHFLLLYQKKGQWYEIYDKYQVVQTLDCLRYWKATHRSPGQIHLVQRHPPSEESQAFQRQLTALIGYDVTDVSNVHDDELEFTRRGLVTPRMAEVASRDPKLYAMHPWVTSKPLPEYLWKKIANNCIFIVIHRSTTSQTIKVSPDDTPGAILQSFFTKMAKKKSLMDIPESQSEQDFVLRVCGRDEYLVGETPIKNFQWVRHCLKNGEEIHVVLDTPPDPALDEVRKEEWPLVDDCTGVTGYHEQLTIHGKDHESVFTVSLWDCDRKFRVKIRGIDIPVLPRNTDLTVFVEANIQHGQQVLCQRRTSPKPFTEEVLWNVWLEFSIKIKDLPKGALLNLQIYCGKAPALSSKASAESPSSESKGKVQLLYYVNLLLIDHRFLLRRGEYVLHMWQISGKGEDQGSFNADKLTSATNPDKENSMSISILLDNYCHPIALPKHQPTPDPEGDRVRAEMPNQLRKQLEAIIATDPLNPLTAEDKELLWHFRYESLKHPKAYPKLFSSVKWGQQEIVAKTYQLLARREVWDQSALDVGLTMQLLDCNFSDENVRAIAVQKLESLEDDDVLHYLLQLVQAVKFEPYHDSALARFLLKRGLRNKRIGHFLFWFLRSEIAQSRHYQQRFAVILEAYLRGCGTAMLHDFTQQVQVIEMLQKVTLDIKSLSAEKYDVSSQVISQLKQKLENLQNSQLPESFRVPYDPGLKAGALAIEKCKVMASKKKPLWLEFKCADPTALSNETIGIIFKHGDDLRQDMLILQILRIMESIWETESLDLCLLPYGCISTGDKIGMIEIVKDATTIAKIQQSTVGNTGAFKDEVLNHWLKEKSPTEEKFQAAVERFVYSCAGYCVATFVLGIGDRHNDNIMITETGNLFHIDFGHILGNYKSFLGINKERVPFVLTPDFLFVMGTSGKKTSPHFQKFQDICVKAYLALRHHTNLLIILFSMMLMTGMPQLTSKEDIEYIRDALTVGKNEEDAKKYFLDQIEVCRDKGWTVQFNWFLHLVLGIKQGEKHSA
# Excerpt: as §1
# [3] = oral, 10 mg/kg P.O. and 3 mg/kg I.V., read-out: Oral bioavailability (F)
# [4] = po, 10 mg/kg, summary table, unit inferred, read-out: Oral Bioavailability (F)
# [5] = plasma, iv, 5 mg/kg, 5 mg/kg I.V., summary
# [6] = plasma, iv, 5 mg/kg, Mesylate Salt
# [7] = plasma, po, 10 mg/kg, Mesylate Salt
# [8] = plasma, IV, 5 mg/kg, Mesylate Salt, read-out: Tmax
# [9] = plasma, PO, 10 mg/kg, Mesylate Salt, read-out: Tmax
# [10] = plasma, oral, 10 mg/kg P.O. and 5 mg/kg I.V., rounded summary in text, read-out: Oral bioavailability (F)
# [11] = plasma, po, 10 mg/kg, summary table, unit inferred, read-out: Oral Bioavailability (F)
compound,measurement,setting,value
"c1cc(-c2nc(N3CCOCC3)c3oc4ncc(CN5CCC6(CC5)COC6)cc4c3n2)c2cc[nH]c2c1 [Example B, 4-(1H-Indol-4-yl)-6-(morpholin-4-yl)-12-{2-oxa-7-azaspiro[3.5]nonan-7-ylmethyl}-8-oxa-3,5,10-triazatricyclo[7.4.0.027]trideca-1(13),2(7),3,5,9,11-hexaene]",Fold IC50 p110β/p110α,PI3K isoforms,** (** = ≥50x)
same,Fold IC50 p110β/p110γ,PI3K isoforms,** (** = ≥50x)
same,Fold IC50 p110δ/p110α,PI3K isoforms,** (** = ≥50x)
same,Fold IC50 p110δ/p110γ,PI3K isoforms,** (** = ≥50x)
same,F,"[1]; PO, 10 mg/kg, Mesylate Salt",74%
same,clearance,"[1]; 3 mg/kg, 3 mg/kg I.V., summary",33 mL/min/kg
same,clearance,"[1]; 3 mg/kg, Mesylate Salt",33.1 mL/min/kg
same,AUC(0-inf),"[1]; IV, 3 mg/kg, Mesylate Salt",1510 ng·h/mL
same,AUC(0-t),"[1]; IV, 3 mg/kg, Mesylate Salt",1510 ng·h/mL
same,Cmax,"[1]; IV, 3 mg/kg, Mesylate Salt",621 ng/mL
same,half-life,"[1]; IV, 3 mg/kg, Mesylate Salt",1.23 h
same,Vd,"[1]; IV, 3 mg/kg, Mesylate Salt",5.51 L/kg
same,AUC(0-inf),"[1]; PO, 10 mg/kg, Mesylate Salt",4100 ng·h/mL
same,AUC(0-t),"[1]; PO, 10 mg/kg, Mesylate Salt",3730 ng·h/mL
same,Cmax,"[1]; PO, 10 mg/kg, Mesylate Salt",780 ng/mL
same,Tmax,"[1]; PO, 10 mg/kg, Mesylate Salt",1 h
same,bioavailability,[1]; [3],74%
same,bioavailability,[1]; [4],74%
c1cc(-c2nc(N3CCOCC3)c3oc4ncc(CN5CCCCC5)cc4c3n2)c2cc[nH]c2c1 [Example I in WO2011/021038],Tmax,"[2]; IV, 5 mg/kg, HCl Salt",0.08 h
same,F,"[2]; PO, 10 mg/kg, HCl Salt",29.6%
same,Tmax,"[2]; PO, 10 mg/kg, HCl Salt",1.0 h
same,F,"[2]; PO, 10 mg/kg, Mesylate Salt",27.8%
same,clearance,[2]; [5],66 mL/min/kg
same,AUC,"[2]; plasma, iv, 5 mg/kg, HCl Salt",1480 ng·h/mL
same,AUC(0-inf),"[2]; plasma, iv, 5 mg/kg, HCl Salt",1520 ng·h/mL
same,AUC(0-t),"[2]; plasma, iv, 5 mg/kg, HCl Salt",1480 ng·h/mL
same,Cmax,"[2]; plasma, iv, 5 mg/kg, HCl Salt",1710 ng/mL
same,Vd,"[2]; plasma, iv, 5 mg/kg, HCl Salt",10.1 L/kg
same,clearance,"[2]; plasma, iv, 5 mg/kg, HCl Salt",55 mL/min/kg
same,half-life,"[2]; plasma, iv, 5 mg/kg, HCl Salt",7.6 h
same,AUC,[2]; [6],1240 ng·h/mL
same,AUC(0-inf),[2]; [6],1260 ng·h/mL
same,AUC(0-t),[2]; [6],1240 ng·h/mL
same,Cmax,[2]; [6],1620 ng/mL
same,Vd,[2]; [6],4.6 L/kg
same,clearance,[2]; [6],66.1 mL/min/kg
same,half-life,[2]; [6],1.6 h
same,AUC,"[2]; plasma, po, 10 mg/kg, HCl Salt",849 ng·h/mL
same,AUC(0-inf),"[2]; plasma, po, 10 mg/kg, HCl Salt",896 ng·h/mL
same,AUC(0-t),"[2]; plasma, po, 10 mg/kg, HCl Salt",849 ng·h/mL
same,Cmax,"[2]; plasma, po, 10 mg/kg, HCl Salt",322 ng/mL
same,half-life,"[2]; plasma, po, 10 mg/kg, HCl Salt",1.8 h
same,AUC,[2]; [7],657 ng·h/mL
same,AUC(0-inf),[2]; [7],700 ng·h/mL
same,AUC(0-t),[2]; [7],657 ng·h/mL
same,Cmax,[2]; [7],212 ng/mL
same,half-life,[2]; [7],1.9 h
same,Tmax,[2]; [8],0.08 h
same,Tmax,[2]; [9],1 h
same,bioavailability,[2]; [10],28%
same,bioavailability,[2]; [11],28%
"CN1CCC2(CCN(Cc3cnc4oc5c(N6CCOCC6)nc(-c6cccc7[nH]ccc67)nc5c4c3)CC2)C1 [Example D, 4-(1H-Indol-4-yl)-12-({2-methyl-2,8-diazaspiro[4.5]decan-8-yl}methyl)-6-(morpholin-4-yl)-8-oxa-3,5,10-triazatricyclo[7.4.0.0^2,7]trideca-1(13),2(7),3,5,9,11-hexaene]",Fold IC50 p110β/p110α,PI3K isoforms,** (** = ≥50x)
same,Fold IC50 p110β/p110γ,PI3K isoforms,** (** = ≥50x)
same,Fold IC50 p110δ/p110α,PI3K isoforms,** (** = ≥50x)
same,Fold IC50 p110δ/p110γ,PI3K isoforms,** (** = ≥50x)
"c1cc(-c2nc(N3CCOCC3)c3oc4ncc(CN5CCC56COC6)cc4c3n2)c2cc[nH]c2c1 [Example G, 4-(1H-indol-4-yl)-6-(morpholin-4-yl)-12-{6-oxa-1-azaspiro[3.3]heptan-1-ylmethyl}-8-oxa-3,5,10-triazatricyclo[7.4.0.0^2,7]trideca-1(13),2(7),3,5,9,11-hexaene]",IC50,PI3K p110α,≤ 500 nM
same,IC50,PI3K p110β,≤ 500 nM
same,IC50,PI3K p110δ,≤ 500 nM
same,IC50,PI3K p110γ,500 to 1000 nM
same,F,"[1]; PO, 10 mg/kg, Mesylate Salt",30%
same,clearance,"[1]; 3 mg/kg, 3 mg/kg I.V., summary",26 mL/min/kg
same,clearance,"[1]; 3 mg/kg, Mesylate Salt",25.8 mL/min/kg
same,AUC(0-inf),"[1]; IV, 3 mg/kg, Mesylate Salt",1940 ng·h/mL
same,AUC(0-t),"[1]; IV, 3 mg/kg, Mesylate Salt",1920 ng·h/mL
same,Cmax,"[1]; IV, 3 mg/kg, Mesylate Salt",2210 ng/mL
same,half-life,"[1]; IV, 3 mg/kg, Mesylate Salt",0.59 h
same,Vd,"[1]; IV, 3 mg/kg, Mesylate Salt",1.25 L/kg
same,AUC(0-inf),"[1]; PO, 10 mg/kg, Mesylate Salt",2140 ng·h/mL
same,AUC(0-t),"[1]; PO, 10 mg/kg, Mesylate Salt",1890 ng·h/mL
same,Cmax,"[1]; PO, 10 mg/kg, Mesylate Salt",833 ng/mL
same,Tmax,"[1]; PO, 10 mg/kg, Mesylate Salt",0.25 h
same,bioavailability,[1]; [3],30%
same,bioavailability,[1]; [4],30%
"c1cc(-c2nc(N3CCOCC3)c3oc4ncc(CN5C[C@@H]6C[C@H]5CO6)cc4c3n2)c2cc[nH]c2c1 [Example A, 4-(1H-Indol-4-yl)-6-(morpholin-4-yl)-12-[(1S,4S)-2-oxa-5-azabicyclo[2.2.1]heptan-5-ylmethyl]-8-oxa-3,5,10-triazatricyclo[7.4.0.0^2,7]trideca-1(13),2(7),3,5,9,11-hexaene]",F,"[2]; PO, 10 mg/kg, Mesylate Salt",73.77%
same,clearance,[2]; [5],21 mL/min/kg
same,AUC,[2]; [6],3900 ng·h/mL
same,AUC(0-inf),[2]; [6],3950 ng·h/mL
same,AUC(0-t),[2]; [6],3900 ng·h/mL
same,Cmax,[2]; [6],2640 ng/mL
same,Vd,[2]; [6],2.44 L/kg
same,clearance,[2]; [6],21.1 mL/min/kg
same,half-life,[2]; [6],1.3 h
same,AUC,[2]; [7],5620 ng·h/mL
same,AUC(0-inf),[2]; [7],5820 ng·h/mL
same,AUC(0-t),[2]; [7],5620 ng·h/mL
same,Cmax,[2]; [7],1970 ng/mL
same,half-life,[2]; [7],1.3 h
same,Tmax,[2]; [8],0.08 h
same,Tmax,[2]; [9],1 h
same,bioavailability,[2]; [10],74%
same,bioavailability,[2]; [11],74%
"CN1CCC2(CCN(Cc3cnc4oc5c(N6CCOCC6)nc(-c6cccc7[nH]ccc67)nc5c4c3)C2)C1 (centres unmarked) [Example E, 4-(1H-Indol-4-yl)-12-({7-methyl-2,7-diazaspiro[4.4]nonan-2-yl}methyl)-6-(morpholin-4-yl)-8-oxa-3,5,10-triazatricyclo[7.4.0.0^2,7]trideca-1(13),2(7),3,5,9,11-hexaene]",Fold IC50 p110β/p110α,PI3K isoforms,** (** = ≥50x)
same,Fold IC50 p110β/p110γ,PI3K isoforms,** (** = ≥50x)
same,Fold IC50 p110δ/p110α,PI3K isoforms,** (** = ≥50x)
same,Fold IC50 p110δ/p110γ,PI3K isoforms,** (** = ≥50x)
